Laboratory results published in patent EP0897720A1, “Droloxifene for prevention of breast cancer” (Pfizer Products Inc., priority 1997, dated 1999).

Legend:
[1] = test system: 7,12-dimethylbenz(a)anthraceneinduced mammary tumor; assay: Inhibitory effect on the mammary tumor (DMBA-induced tumor model); assay type: in vivo, female Sprague-Dawley rat (Hanover breed); details: 3 mg./kg./day by stomach tube, six times weekly over 28 days; control animals taken as 100%
Protocol: Twice weekly and on the 28th day of testing the number of animals was determined and the tumor surface (mm^2/animal) of the therapy animals and control animals was measured. At the end of testing, the percentage increase of the average tumor surface of the treated animals was determined in comparison to the control animals, the surface of the latter being taken as 100%.

[2] = test system: puberal, female sprague-Dawley rats; assay: Anti-uterotrophic effect (modified Dorfman Test); assay type: in vivo; details: 3 mg./kg./day by stomach tube, six times weekly over 21 days, 0.25% aqueous agar suspension
Protocol: The anti-uterotrophic effect was determined according to a modified "Dorfman Test" [R. I. Dorfman, Methods in Hormone Research II, p. […]

[3] = test system: epithelial cells of the uterus; details: stated as a known side-effect of earlier anti-estrogens; cited from earlier work

CC/C(=C(/c1ccc(OCCN(C)C)cc1)c1cccc(O)c1)c1ccccc1 [Compound 1, 1-[4'-(2-dimethylaminoethoxy)phenyl]-1-(3'-hydroxyphenyl)-2-phenylbut-1-ene]
Relative Increase of the Average Tumor Surface [1]: 23%
Uterine Weight compared to Controlled Animals [2]: -42%

CC/C(=C(/c1ccc(OCCN(CC)CC)cc1)c1cccc(O)c1)c1ccccc1 [Compound 2]
Uterine Weight compared to Controlled Animals [2]: -39%

CC/C(=C(/c1ccc(OCCNC)cc1)c1cccc(O)c1)c1ccccc1 [Compound 3]
Uterine Weight compared to Controlled Animals [2]: -53%

CC/C(=C(\c1ccccc1)c1ccc(OCCN(C)C)cc1)c1ccccc1 [Tamoxifen, reference compound]
abnormal growth of uterine epithelial cells [3]: causes abnormal growth of uterine epithelial cells
Uterine Weight compared to Controlled Animals [2]: -40%
